Our source for the melting point values is a melting point compilation (Tetko et al.; mined from patent text by program, amines drawn as free bases though some values may be those of a salt).

One may read the melting point as the temperature of the solid-liquid transition.

In the case of `Cc1oc(-c2ccco2)nc1CCOc1ccc(N)cn1`, the melting point lay in the range of 88 to 90 °C.

`CCCC(=O)c1cnc2cc(COC(=O)c3ccccc3)ccc2c1Cl` returned a melting point of 66 to 68 °C. For `COc1cc(F)c(C(=O)Oc2ccc(C(=O)O)cc2)cc1C12CC3CC(CC(C3)C1)C2` the value was 268 to 270 °C; for `O=C1C(c2cccc(O)c2)CCCCN1Cc1ccccc1` (stereo unspecified), 160 to 166 °C. In turn, `COC(=O)Nc1nc2ccc(O)cc2[nH]1` yielded a melting point of 300 °C. `COc1ccc(-n2nnc3ccc(-c4nnc(CCc5cccc(F)c5)o4)cc32)cc1` came in with a melting point of 125 to 126 °C.

Compound `CC(C)(C)CC(C)(C)c1ccc(O)c(-n2nc3ccc(C(F)(F)F)cc3n2)c1` came in with a melting point of 80 to 81 °C. For `Cc1nnc(-c2ccnc(NCc3ccccn3)c2)o1` the value was 137 to 138 °C; for `COc1cc(F)ccc1-c1c(/C=C/C(=O)O)c2ccccc2c(=O)n1C(C)C`, 265 to 267 °C; for `Cc1cc(C)nc(NC(=O)NS(=O)(=O)c2ccccc2C(=O)N(C)C)c1`, 166 to 168 °C.

As to `Cc1ccc(S(=O)(=O)N2CCCC2c2ccc(C)cc2C)cc1` (racemic), the melting point came to 130 °C.

In turn, `CCc1c(C(=O)Cl)cnn1-c1ccc(Cl)cc1` showed a melting point of 105 to 107 °C. For `OC1CSC(Oc2cnc(-c3ccncc3)c(F)c2)C(O)C1O` (stereo unspecified) the value was 192 °C; for `CC(C)(C)OC(=O)N1CCC=C(Cc2c[nH]c3ccc(F)cc23)C1`, 78 to 80 °C. For `Nc1nc2c(ncn2COCCOC(=O)CCC(=O)O)c(=O)[nH]1` the value was 203 to 207 °C. Regarding `C#CC1=CCC2C3CCC4=CC(=O)CCC4C3CCC12C` (stereo unspecified), the melting point fell in the range of 148 to 152 °C. The compound `CN1C(=O)C(c2ccc(OC(F)(F)F)c(F)c2)(c2ccc(F)c(-c3cncc(F)c3)c2)N=C1N` (stereo unspecified) returned a melting point of 91 to 97 °C. For `CCCCc1nc(CO)c(C(=O)O)n1Cc1ccc(-c2ccccc2C(=O)O)cc1` the value was 130 to 140 °C; for `CCCC(c1ccc(C(=O)O)cc1OCc1ccc(Br)cc1)n1ccnc1` (stereo unspecified), 155 to 158 °C; for `CC(=O)OC1CSC(Oc2ccccc2[N+](=O)[O-])C(OC(C)=O)C1OC(C)=O` (stereo unspecified), 148 °C. For `Cc1[nH]cnc1-c1cc(C(C)(C)C)c(O)c(C(C)(C)C)c1` the value was 207 to 209 °C; for `CNC(=O)c1ccc(Cl)cc1`, 158 to 161 °C; for `COCCN(C1CC(C)(C)Oc2ccc(O)cc21)S(C)(=O)=O` (stereo unspecified), 115 to 117 °C.

`CC(C)Oc1c(C(=O)Nc2nnn[nH]2)sc2c1CS(=O)(=O)CC2` registered a melting point of 230 to 232 °C. As to `COc1ccc(C(=O)Nc2ccccc2)cc1NS(=O)(=O)c1ccc2ccccc2c1`, the melting point is 223 to 225 °C. For `COc1ccc(N2CCN(Cc3nn(C(C)=O)c4cc(F)ccc34)CC2)cc1` the value was 94 to 95 °C. For `COc1cc2c(cc1Nc1ncc(C(F)(F)F)c(N[C@H]3[C@@H](C(N)=O)[C@@H]4C=C[C@H]3C4)n1)CCN(CC(=O)N(C)C)CC2` the value was 133 to 135 °C. For `Cc1cccc(CC(=O)O)c1OCCCc1cn(-c2ccc(C(F)(F)F)cn2)nc1C(C)C` the value was 159 to 160 °C.

On to `CCCN(CCC)C1Cc2c[nH]c3ccc(C(C)=O)c(c23)C1` (stereo unspecified), for which the melting point fell in the range of 148 to 150 °C. For `OCc1cc(OCc2ccccc2)c(OCc2ccccc2)cn1` the value was 96.6 °C.

For `COc1cc(CCO)cc(OC)c1-c1ccc(C[C@H](NC(=O)c2c(Cl)cccc2Cl)C(=O)OC(C)(C)C)cc1`, the melting point is 96 to 98 °C. For `CCOC(=O)/C=C/c1cn(CC)nc1OCc1ccc(OCc2nc(-c3ccco3)oc2C)c(OC)c1` the value was 149 to 150 °C; for `CCCCn1c(C)c(C(=O)NC2CCN(CCc3ccccc3)CC2)c2cc(O)ccc21`, 178 to 181 °C; for `N#Cc1ccc(C[C@]23C[C@@H](O)CN2C(=O)N(c2cc(Cl)nc(Cl)c2)C3=O)cc1`, 97.6 °C. For `CC(C)Cn1c(Nc2cc(C(F)(F)F)ccc2C(F)(F)F)nc(C(F)(F)F)cc1=O` the value was 136 to 138 °C; for `CCOC(=O)c1cn(CCNC(=O)OC(C)(C)C)c(Br)c1-c1cccc(F)c1`, 108 to 110 °C; for `O=C(NC1CCCCC1)c1cccc(Cn2cnc3ccccc32)c1`, 132 to 134 °C. On to `Oc1ccc([C@H]2OCCN3[C@@H](CCc4ccccc4)CC[C@H]23)cc1` (racemic), for which the melting point was in the range of 170 to 172 °C.

`Cc1noc(CC(=O)Oc2ccc(Br)cc2)n1` returned a melting point of 73 to 74 °C.

With `CC(C)Nc1nc(N)nc(-c2ccccc2)c1-c1ccc(=O)n(C(C)C)n1`, the melting point was 234 to 236 °C. For `O=S(=O)(Nc1ccccc1OC1CCCCC1)C(F)(F)F` the value was 83 to 85 °C. For `NC(c1ccc2ccccc2c1)P(O)O` (stereo unspecified) the value was 237 to 239 °C; for `O=C(CCN1CCN(c2ccccc2)CC1)c1ccc2oc3ccc(C(=O)CCN4CCN(c5ccccc5)CC4)cc3c(=O)c2c1`, 199 to 201 °C; for `COC(=O)c1ccccc1CS(=O)(=O)NC(=O)Cc1nc(OC)cc(OC)n1`, 98 to 101 °C. The compound `O=C(CCc1ccccc1)C(Cc1ccccc1)(Cc1ccccc1)C(=O)CCc1ccccc1` yielded a melting point of 84 to 86 °C. For `NC(=S)Nc1ccc(C2=NNC(=O)Cc3cc4c(cc32)OCO4)cc1` the value was 236 to 238 °C; for `CC(=NOC(=O)N(C)SC(Cl)(Cl)Cl)SCCC#N`, 136 to 138 °C. For `CC(C)c1c(Br)c(Br)c(-c2ccc(F)cc2)n1CC[C@H]1C[C@H](O)CC(=O)O1` (relative stereo), the melting point stood at 143 °C. For `COc1ccc(-c2cc(=S)n(CC=Cc3ccc(F)cc3F)nc2-c2ccc(OC)cc2)cc1` the value was 141 °C. For `O=C1CCC(O)(c2ccc(Cl)cc2)CC1` the value was 138 to 139 °C; for `CSc1sc(-c2ccno2)c2c1C(=O)CC(C)(C)C2`, 143 to 145 °C.

`CCOc1cc(OC)ccc1C(CC(=O)Nc1cc(C(N)=O)ccc1C(C)(C)C)CC(C)C` (stereo unspecified) registered a melting point of 216 to 217 °C.

Take `CCCCCCCCCCCCCCCCCCOCCSCCOC(=O)NCc1ccccn1`: the melting point fell in the range of 60 to 62 °C.

`CN(C(=O)c1ccc2nonc2c1)C1CCN(C=O)CC1` came in with a melting point of 163 to 165 °C.

`O=C(NC(Cc1ccccc1F)C(=O)N1CCSC1)c1cc2cc(Cl)ccc2[nH]1` (stereo unspecified): the melting point was 216 to 217 °C. In turn, `Clc1cccc(-c2cn3c(n2)sc2ccccc23)c1` came in with a melting point of 173 to 175 °C. The compound `CC1(C)C(=O)Oc2ccc3cc(C(N)=O)c(Cn4cncn4)cc3c21` displayed a melting point of 231 to 232 °C. For `C=CC(=O)OC12Oc3cc(C(C)C)ccc3C1(O)C(=O)c1ccccc12` (stereo unspecified) the value was 95 to 97 °C; for `CC(C)COc1ccc(-c2ccc3nnn(Cc4ccc5ncccc5c4)c3n2)cc1F`, 115 to 157 °C; for `CC(C)(C)OC(=O)c1ccc(NC2CCc3cc4nc(COC(=O)C(C)(C)C)[nH]c(=O)c4cc32)cc1` (racemic), 231 °C. For `Cc1ccc(C(=O)C=CN(C)C)cc1C` the value was 108 to 110 °C. For `OCC1OC(n2cnc3c(NCCc4csc5ccccc45)ncnc32)C(O)C1O` (stereo unspecified) the value was 173 to 174 °C.

The compound `COc1cc(-c2nc3ccc(OCCCN4CCCCC4)cc3n2Cc2ccccc2C(F)(F)F)cc(OC)c1OC` yielded a melting point of 138 °C. For `COc1ccc(Br)c2c1-c1ccc(NS(C)(=O)=O)cc1C(c1ccccc1)O2` (stereo unspecified) the value was 122 to 123 °C.

Consider `CC(C(N)=O)n1nc(-c2cc(C(C)(C)C)c(O)c(C(C)(C)C)c2)c2cccnc21` (stereo unspecified), for which the melting point fell in the range of 192 to 194 °C. For `CCSc1sc(C(=O)N2CCCC2)c2c1-c1oncc1C(C)(C)C2` the value was 91 to 93 °C; for `Cc1ccc(-c2ccnc3c(C(=O)c4cccs4)cnn23)cc1NC(=O)OC(C)C`, 198 to 200 °C. For `O=C1N(Cc2ccc(Cl)cc2)c2ccccc2C1(O)c1ccoc1` (stereo unspecified) the value was 128 to 130 °C; for `N#CCS(=O)(=O)C=C1N(CCCN2CCCCC2)CCN1CCCN1CCCCC1`, 105 to 107 °C.

Compound `N#Cc1ncc(Cl)nc1C#N` registered a melting point of 89 to 90 °C. For `N/C(=C1/Sc2ccc(Cl)cc2C1=O)c1ccccc1` the value was 172 to 173 °C. The compound `O=C(O)CN[C@H]1CCN(c2ccc3c(NC(=O)CC4CCCCC4)c(Cl)ccc3n2)C1` gave a melting point of 257 to 259 °C. For `Cc1ccc(S(=O)(=O)C(=CNc2ccc(Br)cn2)C(=O)c2ccccc2)cc1` the value was 205 °C. For `N#CCSC(=S)SCCc1ccccc1` the value was 72 to 73 °C. In turn, `Cn1c(C(F)(F)F)cc(=O)n(-c2cc(OC=O)c(Cl)cc2F)c1=O` yielded a melting point of 97 to 99 °C. For `CC(=O)NC[C@H]1CN(c2ccc(N3CCC(O)(CN4CCOCC4)CC3)c(F)c2)C(=O)O1` the value was 184 to 186 °C.

Take `Fc1cccc(-c2nc3cnccc3[nH]2)c1`: the melting point lay within 290 to 291 °C. For `CC1c2cccc3c2N(CC3)c2ccccc2N1C(=O)CCBr` (stereo unspecified) the value was 149 to 151 °C. For `CC(=O)C1C(=O)CC(CCS(=O)(=O)c2ccc(C(F)(F)F)cc2)CC1=O` (stereo unspecified) the value was 136 °C; for `O=C(Nc1ccc(C(CC2CCCC2)C(=O)O)cc1)c1cccnc1` (stereo unspecified), 160 to 163 °C.

In turn, `OC(c1ccc(F)cc1)(c1ccc(F)cc1)C1CCN(Cc2ccccc2)C1` (stereo unspecified) had a melting point of 99 to 100 °C. For `COC(=O)[C@@H]1C(=O)c2cc(OCc3ccccc3)ccc2[C@H]1c1ccc2c(c1)OCO2` (racemic) the value was 148 to 150 °C; for `COC1=C(Cl)C(=O)C(OC)=C(CCCCCC2=C(OC)C(=O)C(Cl)=C(OC)C2=O)C1=O`, 79.8 to 80 °C; for `O=C(c1ccccc1)c1cccc2c(CC(C(=O)O)C(=O)O)c[nH]c12`, 188 to 189 °C. For `O=c1c2[nH]nnc2nc2sc(CCc3ccccc3)nn12` the value was 295 to 296 °C; for `O=C1N(CCCCN2CCN(c3n[nH]c4ccccc34)CC2)CSC12CCCC2`, 166 to 168 °C.
